# Reference: paper PMC9579194, “Selective macrocyclic peptide modulators of Lys63-linked ubiquitin chains disrupt DNA damage repair” (Nature Communications, 2022)
# Several values for one entry are separate records, joined by “and”; a condition that tells them apart may be missing. Identical values can stand only once. Like-named read-outs stand apart in the source and are kept apart here. *1 amine or outer side, *2 acyl side, *3 side chain or, on linkers, in order; H or OH if unused. Where a SMILES comes first, the peptide text is derived from it. Bridges are numbered along the chain shown (N, C = ends). The star is where a group is joined. Fluorescein(5-Mal) = O=C1OC2(c3ccc(O)cc3Oc3cc(O)ccc32)c2ccc(N3C(=O)CC(*)C3=O)cc21; X2 = CN(C)c1ccc2c(-c3ccc(N4C(=O)CC(*)C4=O)cc3C(=O)[O-])c3ccc(=[N+](C)C)cc-3oc2c1; X1 = O=C(c1cccc(C[*:2])c1)[*:1]; X3 = Fc1c(F)c(F)c(*)c(F)c1F
# Tests used:
# U2OS cells [1] = tested on: U2OS cells
# Description: (§1) Cells were seeded for 24 h on Ibidi 8 well µ-slides treated with poly-L-lysine to reach ~90% confluency. Cells were then washed three times with warm PBS followed by incubation for 1 h with a warm serum-free medium (DMEM) containing peptides. Thereafter, cells were washed two times with warm PBS. Prior to imaging, cells were washed with an optical culture medium and stained with Hoechst (2 µg/ml). Live cell CLSM images were captured using Confocal Zeiss LSM 710 equipped with 40× NA 1.2 water immersion objective lens using a 1 AU pinhole settings. Different lasers were used for the different tags (Hoechst, TAMRA, FITC), and during analysis, the µ-slide was kept at 37 °C in a humidified chamber. Images were analyzed using ZEN 3.2 (blue edition).
# Lys63 linked Di-Ub = biological target: T1, Lys63 linked Di-Ub (Homo sapiens, UniProt P0CG48); assay: KD determination of fluorophore-labeled cyclic peptides, fluorescence-based assay; type: binding; conditions: for Kd: fluorophore-labeled peptide, Y = Bmax*X/(KD + X); for Reading-1 / Reading-2 / Reading-3: raw fluorescence, blank not subtracted, Experiments 1-3
# T1 construct: made in house; host or cells: total chemical synthesis (Fmoc-SPPS, ligation, desulfurization)
# Description: (ii) Determination of KD value of CP1-FITC
# According to the described procedure in literature,3 the KD value of FITC-labeled cyclic peptide 1 (CP1- […]
# Supplementary Fig. 25 The carve represents the binding of CP1-FITC to Lys63 linked Di-Ub. Using Y = […]
# All measurements were performed in three independent experiments. Bars represent mean values. All source data are provided as a Source […]
# (iii) Determination of KD value of CP1-TAMRA
# The fluorescence values were measured (λex = 510 nm and λem = 565 nm) in a similar way as described for CP1-FITC. The dissociation constant (KD) value of TAMRA-labeled CP1 (CP1-TAMRA) was calculated as 101.9 ± 3.6 nM. All measurements were performed in triplicates.
# Supplementary Fig. 26 The carve represents the binding of CP1-TAMRA to Lys63 linked Di-Ub. Using […]
# performed in triplicates. All measurements were performed in three independent experiments. Bars represent mean values. All source data are provided as a Source data file. […]
# (iv) Determination of KD value of 2-FITC, 29
# The dissociation constant (KD) value of FITC-labeled cyclic peptide 29 was calculated as 43.2± 4 nM.
# Supplementary Fig. 27 The carve represents the binding of 2-FITC to Lys63 linked Di-Ub. Using Y = […]
# All measurements were performed in triplicates. All measurements were performed in three independent experiments. Bars represent mean values. All source data are provided as a Source data file .
# (v) Determination of KD value of 2-TAMRA, 26
# CP1-FITC. The dissociation constant (KD) value of TAMRA-labeled 26 (2-TAMRA) was calculated as 47.4 ± 5.9 nM. All measurements were performed in triplicates.
# Supplementary Fig. 28 The carve represents the binding of 2-TAMRA to Lys63 linked Di-Ub. Using Y = […]
# in triplicates. All measurements were performed in three independent experiments. Bars represent mean […]
# (vi) Determination of KD value of FITC labeled cyclic peptide 27a for cyclic peptide 20 […]
# Supplementary Fig. 29 The carve represents the binding of 27a to Lys63 linked Di-Ub. Using Y = […]
# values. All source data are provided as a Source data file. […]
# U2OS cells [2] = assay: Cell uptake study by confocal microscopy; conditions: live U2OS cells, 1 h, laser scanning confocal microscopy
# Description: as §1
# cells = assay: Cell membrane integrity analysis, SYTOX blue assay; type: cell-based; conditions: up to 2 μM of cyclic peptides
# Description: To assess the cell toxicity due to the loss of membrane integrity within the concentration range used for efficient live-cell delivery of synthetic cyclic peptide molecules, we proceed similarly to the cell uptake experiment and stain the cells with SYTOX™ Blue (100 nM)[44]. SYTOX™ blue dead cell stain is a high-affinity nucleic acid stain that easily penetrates cells with compromised plasma membranes but will not cross uncompromised cell membranes. […] CLSM images were analyzed using ZEN 3.2 (blue edition).
compound,measurement,setting,value
CC[C@H](C)[C@@H]1NC(=O)[C@H](Cc2c[nH]c3ccccc23)NC(=O)[C@H]([C@@H](C)CC)NC(=O)[C@H](CC(C)C)NC(=O)[C@H](CS)NC(=O)c2cccc(c2)CSC[C@@H](C(=O)NCC(=O)N[C@@H](C)C(=O)N[C@@H](CSC2CC(=O)N(c3ccc4c(c3)C(=O)OC43c4ccc(O)cc4Oc4cc(O)ccc43)C2=O)C(N)=O)NC(=O)[C@H](CC(C)C)NC(=O)[C@H]([C@@H](C)CC)NC(=O)[C@H](Cc2ccc(O)cc2)NC(=O)[C@@H]2CCCN2C(=O)[C@H](CC(N)=O)NC(=O)[C@H](CCCCN)NC(=O)[C@H](CO)NC(=O)[C@H](CO)NC(=O)CNC1=O (stereo partly drawn) [2-FITC] (CLIWIGSSKNPYILCGAC(Fluorescein(5-Mal))-NH2; linker N-15 via X1),cell-permeability / delivery to cells,U2OS cells [1],did not observe an efficient delivery
same,Kd,Lys63 linked Di-Ub,43.2 ± 4 nM
CC[C@H](C)[C@@H]1NC(=O)[C@H](Cc2c[nH]c3ccccc23)NC(=O)[C@H]([C@@H](C)CC)NC(=O)[C@H](CC(C)C)NC(=O)[C@H](CS)NC(=O)c2cccc(c2)CSC[C@@H](C(=O)NCC(=O)N[C@@H](C)C(=O)N[C@@H](CSC2CC(=O)N(c3ccc(-c4c5ccc(=[N+](C)C)cc-5oc5cc(N(C)C)ccc45)c(C(=O)[O-])c3)C2=O)C(N)=O)NC(=O)[C@H](CC(C)C)NC(=O)[C@H]([C@@H](C)CC)NC(=O)[C@H](Cc2ccc(O)cc2)NC(=O)[C@@H]2CCCN2C(=O)[C@H](CC(N)=O)NC(=O)[C@H](CCCCN)NC(=O)[C@H](CO)NC(=O)[C@H](CO)NC(=O)CNC1=O (stereo partly drawn) [2-TAMRA] (CLIWIGSSKNPYILCGAC(X2)-NH2; linker N-15 via X1),cell-permeability / delivery to cells,U2OS cells [2],efficient cell-permeability
same,SYTOX signal (cell membrane integrity),cells,did not detect SYTOX signal
same,Kd,Lys63 linked Di-Ub,47.4 ± 5.9 nM
CC[C@H](C)[C@@H]1NC(=O)[C@H](Cc2c[nH]c3ccccc23)NC(=O)[C@H]([C@@H](C)CC)NC(=O)[C@H](CC(C)C)NC(=O)[C@H](CSc2c(F)c(F)c(F)c(F)c2F)NC(=O)c2cccc(c2)CSC[C@@H](C(=O)NCC(=O)N[C@@H](C)C(=O)N[C@@H](CSC2CC(=O)N(c3ccc4c(c3)C(=O)OC43c4ccc(O)cc4Oc4cc(O)ccc43)C2=O)C(N)=O)NC(=O)[C@H](CC(C)C)NC(=O)[C@H]([C@@H](C)CC)NC(=O)[C@H](Cc2ccc(O)cc2)NC(=O)[C@@H]2CCCN2C(=O)[C@H](CC(N)=O)NC(=O)[C@H](CCCCN)NC(=O)[C@H](CO)NC(=O)[C@H](CO)NC(=O)CNC1=O (stereo partly drawn) [27a] (C(X3)LIWIGSSKNPYILCGAC(Fluorescein(5-Mal))-NH2; linker N-15 via X1),Kd,Lys63 linked Di-Ub,285 ± 11.9 nM
CC[C@H](C)[C@@H]1NC(=O)[C@H](Cc2c[nH]c3ccccc23)NC(=O)[C@H]([C@@H](C)CC)NC(=O)[C@H](CC(C)C)NC(=O)[C@H](CC(C)C)NC(=O)c2cccc(c2)CSC[C@@H](C(=O)NCC(=O)N[C@@H](C)C(=O)N[C@@H](CSC2CC(=O)N(c3ccc4c(c3)C(=O)OC43c4ccc(O)cc4Oc4cc(O)ccc43)C2=O)C(N)=O)NC(=O)[C@H](CC(C)C)NC(=O)[C@H]([C@@H](C)CC)NC(=O)[C@H](Cc2ccc(O)cc2)NC(=O)[C@@H]2CCCN2C(=O)[C@H](CC(N)=O)NC(=O)[C@H](CCCCN)NC(=O)[C@H](CO)NC(=O)[C@H](CO)NC(=O)CNC1=O (stereo partly drawn) [CP1-FITC] (LLIWIGSSKNPYILCGAC(Fluorescein(5-Mal))-NH2; linker N-15 via X1),Reading-1,Lys63 linked Di-Ub; conc. 10 nM,1192 and 1298 and 1136
same,Reading-2,Lys63 linked Di-Ub; conc. 10 nM,1174 and 1279 and 1151
same,Reading-3,Lys63 linked Di-Ub; conc. 10 nM,1201 and 1288 and 1189
same,Reading-1,Lys63 linked Di-Ub; conc. 20 nM,1625 and 1719 and 1573
same,Reading-2,Lys63 linked Di-Ub; conc. 20 nM,1643 and 1748 and 1595
same,Reading-3,Lys63 linked Di-Ub; conc. 20 nM,1657 and 1774 and 1588
same,Reading-1,Lys63 linked Di-Ub; conc. 40 nM,2317 and 2485 and 2207
same,Reading-2,Lys63 linked Di-Ub; conc. 40 nM,2298 and 2498 and 2217
same,Reading-3,Lys63 linked Di-Ub; conc. 40 nM,2354 and 2474 and 2221
same,Reading-1,Lys63 linked Di-Ub; conc. 50 nM,2713 and 2954 and 2674
same,Reading-2,Lys63 linked Di-Ub; conc. 50 nM,2756 and 2925 and 2696
same,Reading-3,Lys63 linked Di-Ub; conc. 50 nM,2732 and 2851 and 2602
same,Reading-1,Lys63 linked Di-Ub; conc. 100 nM,3252 and 3463 and 3183
same,Reading-2,Lys63 linked Di-Ub; conc. 100 nM,3236 and 3622 and 3192
same,Reading-3,Lys63 linked Di-Ub; conc. 100 nM,3249 and 3477 and 3196
same,Reading-1,Lys63 linked Di-Ub; conc. 150 nM,3598 and 3825 and 3755
same,Reading-2,Lys63 linked Di-Ub; conc. 150 nM,3624 and 3817 and 3779
same,Reading-3,Lys63 linked Di-Ub; conc. 150 nM,3602 and 3844 and 3784
same,Reading-1,Lys63 linked Di-Ub; conc. 200 nM,4108 and 4275 and 4422
same,Reading-2,Lys63 linked Di-Ub; conc. 200 nM,4147 and 4231 and 4454
same,Reading-3,Lys63 linked Di-Ub; conc. 200 nM,4171 and 4244 and 4397
same,Reading-1,Lys63 linked Di-Ub; conc. 250 nM,4518 and 4629 and 4716
same,Reading-2,Lys63 linked Di-Ub; conc. 250 nM,4536 and 4677 and 4749
same,Reading-3,Lys63 linked Di-Ub; conc. 250 nM,4549 and 4687 and 4765
same,Reading-1,Lys63 linked Di-Ub; conc. 300 nM,4808 and 4979 and 5034
same,Reading-2,Lys63 linked Di-Ub; conc. 300 nM,4853 and 4995 and 5045
same,Reading-3,Lys63 linked Di-Ub; conc. 300 nM,4869 and 4968 and 5076
